Measured values from ChEMBL document CHEMBL1145886, “Design, synthesis, and biological evaluation of 6-substituted-3-(4-methanesulfonylphenyl)-4-phenylpyran-2-ones: a novel class of diarylheterocyclic selective cyclooxygenase-2 inhibitors” (J Med Chem, 2003).
Calls of active or inactive are those of the source. The rule behind the calls is not given here.

Tests used:
Rattus norvegicus [1] = experiment: In vivo antiinflammatory activity against rat carrageenan-induced foot paw edema model at 3 hr following a 1 mg/kg oral dose; assay type: functional
Rattus norvegicus [2] = experiment: Analgesic activity was determined in rat using 4% sodium chloride-induced abdominal constriction assay at a duration of 60 min following a 1 mg/kg intraperitoneal dose; assay type: functional; details: Abdomen, ip, 1 h
[3] = target: T1, Prostaglandin G/H synthase 1 (Ovis aries, UniProt P05979)
T1 sequence (P05979 whole entry): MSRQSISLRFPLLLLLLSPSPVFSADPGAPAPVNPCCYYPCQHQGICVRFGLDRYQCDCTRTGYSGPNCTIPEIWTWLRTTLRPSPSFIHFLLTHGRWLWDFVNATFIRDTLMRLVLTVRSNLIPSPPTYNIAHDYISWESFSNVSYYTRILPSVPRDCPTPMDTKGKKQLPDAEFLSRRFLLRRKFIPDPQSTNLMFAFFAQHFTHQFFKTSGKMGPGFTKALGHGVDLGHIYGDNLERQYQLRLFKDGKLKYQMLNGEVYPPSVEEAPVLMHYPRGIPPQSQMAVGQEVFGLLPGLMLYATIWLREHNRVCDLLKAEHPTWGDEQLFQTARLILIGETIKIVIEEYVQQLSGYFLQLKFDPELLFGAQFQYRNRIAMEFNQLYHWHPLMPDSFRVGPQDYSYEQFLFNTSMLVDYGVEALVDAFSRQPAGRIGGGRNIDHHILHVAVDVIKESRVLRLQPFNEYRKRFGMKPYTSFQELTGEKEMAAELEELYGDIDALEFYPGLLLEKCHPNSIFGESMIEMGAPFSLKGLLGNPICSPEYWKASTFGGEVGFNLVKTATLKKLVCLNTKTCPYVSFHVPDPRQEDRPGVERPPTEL
Description: In vitro inhibitory activity against Prostaglandin G/H synthase 1 (COX-1)

[4] = target: T2, Prostaglandin G/H synthase 2 (Bos taurus, UniProt O62698)
T2 sequence (O62698 whole entry): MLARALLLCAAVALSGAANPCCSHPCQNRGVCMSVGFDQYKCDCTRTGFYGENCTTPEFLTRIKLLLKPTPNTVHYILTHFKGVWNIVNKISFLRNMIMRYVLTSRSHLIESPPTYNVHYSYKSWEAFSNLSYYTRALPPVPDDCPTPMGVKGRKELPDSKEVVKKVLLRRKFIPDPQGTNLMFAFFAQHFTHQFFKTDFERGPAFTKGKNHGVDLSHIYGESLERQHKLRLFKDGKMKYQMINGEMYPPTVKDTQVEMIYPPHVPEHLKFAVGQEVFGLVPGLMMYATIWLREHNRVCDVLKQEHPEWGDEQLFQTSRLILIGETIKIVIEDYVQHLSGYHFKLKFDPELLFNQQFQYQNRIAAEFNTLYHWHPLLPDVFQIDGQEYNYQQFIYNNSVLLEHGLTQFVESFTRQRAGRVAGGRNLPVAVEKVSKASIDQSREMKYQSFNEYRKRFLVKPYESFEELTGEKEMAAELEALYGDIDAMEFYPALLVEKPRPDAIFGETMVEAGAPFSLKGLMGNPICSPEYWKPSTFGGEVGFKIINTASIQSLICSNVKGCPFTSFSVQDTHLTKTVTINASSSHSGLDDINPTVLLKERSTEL
Description: In vitro inhibitory activity against prostaglandin G/H synthase 2 (COX-2)

Rattus norvegicus [5] = experiment: In vivo antiinflammatory activity against rat carrageenan-induced foot paw edema model at 5 hr following a 1 mg/kg oral dose; assay type: functional
Rattus norvegicus [6] = experiment: Analgesic activity was determined in rat using 4% sodium chloride-induced abdominal constriction assay at a duration of 30 min following a 1 mg/kg intraperitoneal dose; assay type: functional; details: Abdomen, ip, 0.5 h
Rattus norvegicus [7] = experiment: In vivo antiinflammatory activity against rat carrageenan-induced foot paw edema model at 3 hr following a 1 mg/kg oral dose; NA is inactive; assay type: functional, organism-based; set-up: dose 1 mg/kg; details: at 1 mg/kg

`CC(C)(C)Oc1cc(-c2ccccc2)c(-c2ccc(S(C)(=O)=O)cc2)c(=O)o1` gave an inhibition in vivo at 1 mg/kg (Rattus norvegicus [1]) of 29%, an inhibition in vivo at 1 mg/kg (Rattus norvegicus [2]) of 80.9% and an IC50 [3] of over 100 µM. The IC50 [4] was 2.7 µM, the inhibition in vivo at 1 mg/kg (Rattus norvegicus [5]) was 30.1% and the inhibition in vivo at 1 mg/kg (Rattus norvegicus [6]) was 73.8%.
`CCSc1cc(-c2ccccc2)c(-c2ccc(S(C)(=O)=O)cc2)c(=O)o1` was tested, and the inhibition in vivo at 1 mg/kg (Rattus norvegicus [1]) was 9.2%, the inhibition in vivo at 1 mg/kg (Rattus norvegicus [2]) was 77.4% and the inhibition in vivo at 1 mg/kg (Rattus norvegicus [5]) was 19.5%. It also gave an inhibition in vivo at 1 mg/kg (Rattus norvegicus [6]) of 81%.
`CCOc1cc(-c2ccc(F)cc2)c(-c2ccc(S(C)(=O)=O)cc2)c(=O)o1` showed an inhibition in vivo at 1 mg/kg (Rattus norvegicus [1]) of 32.7%, an inhibition in vivo at 1 mg/kg (Rattus norvegicus [2]) of 75.7% and an IC50 [3] of 288 µM. It also gave an IC50 [4] of 0.1 µM, an inhibition in vivo at 1 mg/kg (Rattus norvegicus [5]) of 67.8% and an inhibition in vivo at 1 mg/kg (Rattus norvegicus [6]) of 42.8%.
`Cc1cc(-c2ccccc2)c(-c2ccc(S(C)(=O)=O)cc2)c(=O)o1` was tested, and the inhibition in vivo at 1 mg/kg (Rattus norvegicus [1]) was 12.5%, the inhibition in vivo at 1 mg/kg (Rattus norvegicus [2]) was 60.4% and the inhibition in vivo at 1 mg/kg (Rattus norvegicus [5]) was 23.5%. The inhibition in vivo at 1 mg/kg (Rattus norvegicus [6]) was 57%.
`CC(C)(C)Oc1cc(-c2ccc(F)cc2)c(-c2ccc(S(C)(=O)=O)cc2)c(=O)o1` was tested, and the IC50 [3] was 68.5 µM and the IC50 [4] was 20.4 µM.
Work on `CC(C)Cc1ccc(C(C)C(=O)O)cc1` (stereo not drawn) [IBUPROFEN] yielded an inhibition in vivo at 1 mg/kg (Rattus norvegicus [1]) of 56.2% and an inhibition in vivo at 1 mg/kg (Rattus norvegicus [5]) of 41.5%.
`COc1cc(-c2ccc(F)cc2)c(-c2ccc(S(C)(=O)=O)cc2)c(=O)o1` gave an inhibition in vivo at 1 mg/kg (Rattus norvegicus [1]) of 30.6%, an inhibition in vivo at 1 mg/kg (Rattus norvegicus [2]) of 72.6% and an IC50 [3] of over 1000 µM. For the same compound, the IC50 [4] was 59.5 µM, the inhibition in vivo at 1 mg/kg (Rattus norvegicus [5]) was 30% and the inhibition in vivo at 1 mg/kg (Rattus norvegicus [6]) was 49%.
For `CC(C)COc1cc(-c2ccc(F)cc2)c(-c2ccc(S(C)(=O)=O)cc2)c(=O)o1`, the IC50 [3] was 42.6 µM and the IC50 [4] was 35 µM.
`CC(C)c1cc(-c2ccccc2)c(-c2ccc(S(C)(=O)=O)cc2)c(=O)o1` gave an inhibition in vivo at 1 mg/kg (Rattus norvegicus [1]) of 9.8%, an inhibition in vivo at 1 mg/kg (Rattus norvegicus [2]) of 56.9% and an inhibition in vivo at 1 mg/kg (Rattus norvegicus [5]) of 19.5%. For the same compound, the inhibition in vivo at 1 mg/kg (Rattus norvegicus [6]) was 67.8%.
`CCCSc1cc(-c2ccccc2)c(-c2ccc(S(C)(=O)=O)cc2)c(=O)o1` was tested, and the IC50 [3] was over 100 µM and the IC50 [4] was over 100 µM.
Compound `CC(C)c1cc(-c2ccc(F)cc2)c(-c2ccc(S(C)(=O)=O)cc2)c(=O)o1` has an inhibition in vivo at 1 mg/kg (Rattus norvegicus [1]) of 35.8%, an inhibition in vivo at 1 mg/kg (Rattus norvegicus [2]) of 20.7% and an IC50 [3] of 15.7 µM. It also gave an IC50 [4] of 13.6 µM, an inhibition in vivo at 1 mg/kg (Rattus norvegicus [5]) of 69.1% and an inhibition in vivo at 1 mg/kg (Rattus norvegicus [6]) of 50.9%.
Work on `CS(=O)(=O)c1ccc(-c2c(-c3ccccc3)cc(OCc3ccc(Cl)cc3)oc2=O)cc1` yielded an IC50 [3] of 50.7 µM and an IC50 [4] of 416 µM.
For `Cc1ccc(-c2cc(C(F)(F)F)nn2-c2ccc(S(N)(=O)=O)cc2)cc1` [CELECOXIB], the inhibition in vivo at 1 mg/kg (Rattus norvegicus [1]) was 79.9%, the inhibition in vivo at 1 mg/kg (Rattus norvegicus [2]) was 62% and the inhibition in vivo at 1 mg/kg (Rattus norvegicus [5]) was 58.2%. It also gave an inhibition in vivo at 1 mg/kg (Rattus norvegicus [6]) of 31.7%.
In the case of `Cc1cc(-c2ccc(F)cc2)c(-c2ccc(S(C)(=O)=O)cc2)c(=O)o1`, the IC50 [3] is reported as 201 µM and the IC50 [4] is reported as 125 µM.
`COc1cc(-c2ccccc2)c(-c2ccc(S(C)(=O)=O)cc2)c(=O)o1` was tested, and the inhibition in vivo at 1 mg/kg (Rattus norvegicus [2]) was 83.4%, the inhibition (Rattus norvegicus [7]) was “inactive” and the inhibition in vivo at 1 mg/kg (Rattus norvegicus [5]) was 22%. The inhibition in vivo at 1 mg/kg (Rattus norvegicus [6]) was 55.2%.
With `CC(C)Oc1cc(-c2ccc(F)cc2)c(-c2ccc(S(C)(=O)=O)cc2)c(=O)o1` the IC50 [3] was 560 µM and the IC50 [4] was 83.6 µM.
`CC(C)COc1cc(-c2ccccc2)c(-c2ccc(S(C)(=O)=O)cc2)c(=O)o1` was tested, and the IC50 [3] was 3.1 µM and the IC50 [4] was 1.8 µM.
With `CS(=O)(=O)c1ccc(-c2c(-c3ccc(F)cc3)cc(OCc3ccc(Cl)cc3)oc2=O)cc1` the IC50 [3] was 301 µM and the IC50 [4] was 53.3 µM.
Compound `CCSc1cc(-c2ccc(F)cc2)c(-c2ccc(S(C)(=O)=O)cc2)c(=O)o1` has an inhibition in vivo at 1 mg/kg (Rattus norvegicus [1]) of 25.8%, an inhibition in vivo at 1 mg/kg (Rattus norvegicus [2]) of 66% and an IC50 [3] of over 100 µM. The IC50 [4] was 1.44 µM, the inhibition in vivo at 1 mg/kg (Rattus norvegicus [5]) was 16.8% and the inhibition in vivo at 1 mg/kg (Rattus norvegicus [6]) was 54.3%.
